Assay results as given in ChEMBL document CHEMBL1909046, “DrugMatrix in vitro pharmacology data”.

biological target: T1, C-X-C chemokine receptor type 1 (Homo sapiens, UniProt P25024); assay: not given; details: not given; further: in other assays of this panel Not Active means under 50% inhibition at 10 µM
T1 sequence (P25024 whole entry): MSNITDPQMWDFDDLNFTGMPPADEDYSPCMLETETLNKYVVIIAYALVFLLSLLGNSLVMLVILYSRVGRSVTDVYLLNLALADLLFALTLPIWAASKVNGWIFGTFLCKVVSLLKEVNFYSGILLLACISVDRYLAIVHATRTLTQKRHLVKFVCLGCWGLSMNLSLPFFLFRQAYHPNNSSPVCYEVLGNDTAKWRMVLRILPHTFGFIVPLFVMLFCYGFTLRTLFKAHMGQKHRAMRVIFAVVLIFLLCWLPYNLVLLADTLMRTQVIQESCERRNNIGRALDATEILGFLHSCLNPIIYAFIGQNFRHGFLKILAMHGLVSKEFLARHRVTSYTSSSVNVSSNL

SMILES | IC50
CC1CCC(NC(=O)N(CCCl)N=O)CC1 (stereo not drawn) [SEMUSTINE] | Not Active
O=C1C[C@@H]2OCC=C3CN4CC[C@]56c7ccccc7N1[C@H]5[C@H]2[C@H]3C[C@H]46 [STRYCHNINE] | Not Active
C[N+](C)(C)CCOC(=O)CCC(=O)OCC[N+](C)(C)C.[Cl-].[Cl-] [SUCCINYLCHOLINE CHLORIDE] | Not Active
Nc1ccc(S(=O)(=O)NC(=O)c2ccccc2)cc1 [SULFABENZAMIDE] | Not Active
CCCCCCCCNC(C)C(O)c1ccc(SC(C)C)cc1 (stereo not drawn) [SULOCTIDIL] | Not Active
O=c1[nH]c(=O)n(C2CCCO2)cc1F (stereo not drawn) [TEGAFUR] | Not Active

biological target: Prostaglandin G/H synthase 1 (Homo sapiens, UniProt P23219); assay: biochemical; format: tissue-based, Platelet; details: platelet;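 further: inhibition of COX-1 enzyme activity, with arachidonic acid supplied as substrate; in other assays of this panel Not Active means under 50% inhibition at 10 µM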
Sequence (P23219 whole entry): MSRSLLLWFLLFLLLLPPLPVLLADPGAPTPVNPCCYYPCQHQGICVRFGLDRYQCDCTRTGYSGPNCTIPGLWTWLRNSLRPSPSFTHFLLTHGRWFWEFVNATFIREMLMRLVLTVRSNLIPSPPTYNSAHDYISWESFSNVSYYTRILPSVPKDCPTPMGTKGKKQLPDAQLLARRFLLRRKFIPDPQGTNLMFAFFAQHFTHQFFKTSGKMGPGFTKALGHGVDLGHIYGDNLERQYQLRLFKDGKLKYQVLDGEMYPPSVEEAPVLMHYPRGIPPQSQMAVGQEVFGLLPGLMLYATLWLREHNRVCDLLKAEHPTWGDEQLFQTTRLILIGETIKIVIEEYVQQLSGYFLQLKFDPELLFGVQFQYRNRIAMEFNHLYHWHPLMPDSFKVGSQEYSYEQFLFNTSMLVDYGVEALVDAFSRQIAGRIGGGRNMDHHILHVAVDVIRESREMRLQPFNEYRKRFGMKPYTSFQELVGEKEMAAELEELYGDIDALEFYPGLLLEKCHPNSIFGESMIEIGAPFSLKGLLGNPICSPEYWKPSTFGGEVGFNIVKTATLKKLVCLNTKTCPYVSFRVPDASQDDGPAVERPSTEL

SMILES | IC50
CC1CCC(NC(=O)N(CCCl)N=O)CC1 (stereo not drawn) [SEMUSTINE] | Not Active
O=C1C[C@@H]2OCC=C3CN4CC[C@]56c7ccccc7N1[C@H]5[C@H]2[C@H]3C[C@H]46 [STRYCHNINE] | Not Active
C[N+](C)(C)CCOC(=O)CCC(=O)OCC[N+](C)(C)C.[Cl-].[Cl-] [SUCCINYLCHOLINE CHLORIDE] | Not Active
Nc1ccc(S(=O)(=O)NC(=O)c2ccccc2)cc1 [SULFABENZAMIDE] | Not Active
CCCCCCCCNC(C)C(O)c1ccc(SC(C)C)cc1 (stereo not drawn) [SULOCTIDIL] | Not Active
O=c1[nH]c(=O)n(C2CCCO2)cc1F (stereo not drawn) [TEGAFUR] | Not Active

biological target: Insulin receptor (Rattus norvegicus, UniProt P15127); assay: not given; format: cell membranes, Wistar, Liver, Membrane; details: not given; further: in other assays of this panel Not Active means under 50% inhibition at 10 µM
Sequence (P15127 27-759 limits assumed): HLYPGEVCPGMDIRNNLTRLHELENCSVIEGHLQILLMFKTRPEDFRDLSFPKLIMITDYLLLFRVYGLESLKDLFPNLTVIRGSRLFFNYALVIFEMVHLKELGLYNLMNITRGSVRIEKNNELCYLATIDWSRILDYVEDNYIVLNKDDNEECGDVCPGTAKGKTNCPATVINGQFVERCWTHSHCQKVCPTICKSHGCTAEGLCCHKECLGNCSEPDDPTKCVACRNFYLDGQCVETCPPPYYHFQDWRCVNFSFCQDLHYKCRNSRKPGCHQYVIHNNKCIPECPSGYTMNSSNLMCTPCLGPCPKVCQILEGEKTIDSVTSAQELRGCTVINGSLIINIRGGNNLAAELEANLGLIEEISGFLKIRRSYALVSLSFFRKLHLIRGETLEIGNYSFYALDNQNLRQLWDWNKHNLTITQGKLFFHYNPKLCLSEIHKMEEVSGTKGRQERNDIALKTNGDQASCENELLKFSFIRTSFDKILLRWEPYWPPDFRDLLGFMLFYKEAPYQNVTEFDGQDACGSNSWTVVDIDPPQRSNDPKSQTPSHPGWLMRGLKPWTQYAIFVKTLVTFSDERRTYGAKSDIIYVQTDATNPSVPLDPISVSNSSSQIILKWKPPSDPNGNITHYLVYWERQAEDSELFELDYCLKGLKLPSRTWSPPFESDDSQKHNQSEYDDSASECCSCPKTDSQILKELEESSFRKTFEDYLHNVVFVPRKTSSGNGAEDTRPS
Sequence (P15127 764-1383 limits assumed): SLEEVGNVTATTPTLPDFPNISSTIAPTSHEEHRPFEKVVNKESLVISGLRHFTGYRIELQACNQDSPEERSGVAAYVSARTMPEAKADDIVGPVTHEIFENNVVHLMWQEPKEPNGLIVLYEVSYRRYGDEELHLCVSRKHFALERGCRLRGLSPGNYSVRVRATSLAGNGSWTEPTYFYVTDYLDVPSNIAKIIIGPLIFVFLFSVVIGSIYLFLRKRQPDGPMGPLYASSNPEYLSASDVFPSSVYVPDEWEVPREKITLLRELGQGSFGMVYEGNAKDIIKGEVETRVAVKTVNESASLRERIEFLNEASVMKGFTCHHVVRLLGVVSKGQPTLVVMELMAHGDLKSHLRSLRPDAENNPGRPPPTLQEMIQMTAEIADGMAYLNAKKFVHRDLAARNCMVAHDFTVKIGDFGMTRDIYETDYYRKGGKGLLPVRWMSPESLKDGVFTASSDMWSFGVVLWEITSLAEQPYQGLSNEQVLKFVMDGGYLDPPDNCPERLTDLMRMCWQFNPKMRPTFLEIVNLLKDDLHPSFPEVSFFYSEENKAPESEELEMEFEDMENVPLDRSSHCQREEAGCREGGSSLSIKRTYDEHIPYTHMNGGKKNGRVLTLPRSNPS

SMILES | IC50
CC1CCC(NC(=O)N(CCCl)N=O)CC1 (stereo not drawn) [SEMUSTINE] | Not Active
O=C1C[C@@H]2OCC=C3CN4CC[C@]56c7ccccc7N1[C@H]5[C@H]2[C@H]3C[C@H]46 [STRYCHNINE] | Not Active
C[N+](C)(C)CCOC(=O)CCC(=O)OCC[N+](C)(C)C.[Cl-].[Cl-] [SUCCINYLCHOLINE CHLORIDE] | Not Active
Nc1ccc(S(=O)(=O)NC(=O)c2ccccc2)cc1 [SULFABENZAMIDE] | Not Active
CCCCCCCCNC(C)C(O)c1ccc(SC(C)C)cc1 (stereo not drawn) [SULOCTIDIL] | Not Active
O=c1[nH]c(=O)n(C2CCCO2)cc1F (stereo not drawn) [TEGAFUR] | Not Active

biological target: T2, Neuropeptide Y receptor type 1 (Homo sapiens, UniProt P25929); assay: not given; format: cell membranes, Membrane; details: sk-n-mc; further: in other assays of this panel Not Active means under 50% inhibition at 10 µM
T2 sequence (P25929 whole entry): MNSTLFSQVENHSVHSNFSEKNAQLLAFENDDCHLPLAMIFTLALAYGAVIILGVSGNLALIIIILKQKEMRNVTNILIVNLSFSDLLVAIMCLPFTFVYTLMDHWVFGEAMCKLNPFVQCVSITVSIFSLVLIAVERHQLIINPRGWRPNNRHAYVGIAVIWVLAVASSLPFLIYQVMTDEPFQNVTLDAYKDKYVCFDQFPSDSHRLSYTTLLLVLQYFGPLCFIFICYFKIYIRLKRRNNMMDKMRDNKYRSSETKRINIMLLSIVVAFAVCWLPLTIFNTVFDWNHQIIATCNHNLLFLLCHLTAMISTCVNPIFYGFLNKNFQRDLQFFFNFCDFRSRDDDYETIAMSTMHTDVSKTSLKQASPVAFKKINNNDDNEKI

SMILES | IC50
CC1CCC(NC(=O)N(CCCl)N=O)CC1 (stereo not drawn) [SEMUSTINE] | Not Active
O=C1C[C@@H]2OCC=C3CN4CC[C@]56c7ccccc7N1[C@H]5[C@H]2[C@H]3C[C@H]46 [STRYCHNINE] | Not Active
C[N+](C)(C)CCOC(=O)CCC(=O)OCC[N+](C)(C)C.[Cl-].[Cl-] [SUCCINYLCHOLINE CHLORIDE] | Not Active
Nc1ccc(S(=O)(=O)NC(=O)c2ccccc2)cc1 [SULFABENZAMIDE] | Not Active
CCCCCCCCNC(C)C(O)c1ccc(SC(C)C)cc1 (stereo not drawn) [SULOCTIDIL] | Not Active
O=c1[nH]c(=O)n(C2CCCO2)cc1F (stereo not drawn) [TEGAFUR] | Not Active

biological target: Nitric oxide synthase 1 (Rattus norvegicus, UniProt P29476); assay: not given; format: tissue-based, Cerebellum; details: not given; further: in other assays of this panel Not Active means under 50% inhibition at 10 µM
Sequence (P29476 whole entry): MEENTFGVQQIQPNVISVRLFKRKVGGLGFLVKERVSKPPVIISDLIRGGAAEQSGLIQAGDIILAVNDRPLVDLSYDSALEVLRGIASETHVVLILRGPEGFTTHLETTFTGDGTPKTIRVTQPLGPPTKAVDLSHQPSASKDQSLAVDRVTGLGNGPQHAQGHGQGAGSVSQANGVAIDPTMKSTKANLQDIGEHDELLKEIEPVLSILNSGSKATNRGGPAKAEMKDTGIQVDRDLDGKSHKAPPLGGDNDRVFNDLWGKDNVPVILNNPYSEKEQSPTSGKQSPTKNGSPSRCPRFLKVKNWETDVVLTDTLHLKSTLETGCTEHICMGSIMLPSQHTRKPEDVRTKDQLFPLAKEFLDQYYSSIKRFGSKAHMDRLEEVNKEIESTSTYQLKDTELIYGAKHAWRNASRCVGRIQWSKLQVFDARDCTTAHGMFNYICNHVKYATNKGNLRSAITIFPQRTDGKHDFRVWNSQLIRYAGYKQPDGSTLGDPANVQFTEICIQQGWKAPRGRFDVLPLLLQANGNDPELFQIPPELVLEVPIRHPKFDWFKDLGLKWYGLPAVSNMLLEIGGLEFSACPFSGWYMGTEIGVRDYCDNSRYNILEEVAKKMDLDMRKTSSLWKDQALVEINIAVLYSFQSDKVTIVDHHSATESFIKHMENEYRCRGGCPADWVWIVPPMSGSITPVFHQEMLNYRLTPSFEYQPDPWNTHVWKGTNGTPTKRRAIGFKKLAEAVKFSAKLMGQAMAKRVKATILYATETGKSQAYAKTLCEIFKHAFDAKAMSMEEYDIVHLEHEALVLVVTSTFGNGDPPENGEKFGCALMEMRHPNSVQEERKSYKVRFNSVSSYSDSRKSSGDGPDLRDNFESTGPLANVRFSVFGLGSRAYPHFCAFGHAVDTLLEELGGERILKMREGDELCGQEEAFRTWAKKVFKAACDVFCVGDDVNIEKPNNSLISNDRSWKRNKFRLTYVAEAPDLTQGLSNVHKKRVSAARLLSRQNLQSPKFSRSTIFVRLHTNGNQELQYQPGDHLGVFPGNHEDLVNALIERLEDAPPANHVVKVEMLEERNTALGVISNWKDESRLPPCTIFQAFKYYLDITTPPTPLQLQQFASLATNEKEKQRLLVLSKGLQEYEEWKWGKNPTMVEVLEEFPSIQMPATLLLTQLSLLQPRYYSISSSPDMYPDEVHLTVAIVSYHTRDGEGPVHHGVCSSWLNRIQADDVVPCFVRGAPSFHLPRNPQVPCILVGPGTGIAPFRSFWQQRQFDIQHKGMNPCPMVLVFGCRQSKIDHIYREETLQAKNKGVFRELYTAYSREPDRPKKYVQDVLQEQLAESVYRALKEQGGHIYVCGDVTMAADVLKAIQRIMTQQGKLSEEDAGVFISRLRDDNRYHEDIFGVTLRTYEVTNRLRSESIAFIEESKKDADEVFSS

SMILES | IC50
CC1CCC(NC(=O)N(CCCl)N=O)CC1 (stereo not drawn) [SEMUSTINE] | Not Active
O=C1C[C@@H]2OCC=C3CN4CC[C@]56c7ccccc7N1[C@H]5[C@H]2[C@H]3C[C@H]46 [STRYCHNINE] | Not Active
C[N+](C)(C)CCOC(=O)CCC(=O)OCC[N+](C)(C)C.[Cl-].[Cl-] [SUCCINYLCHOLINE CHLORIDE] | Not Active
Nc1ccc(S(=O)(=O)NC(=O)c2ccccc2)cc1 [SULFABENZAMIDE] | Not Active
CCCCCCCCNC(C)C(O)c1ccc(SC(C)C)cc1 (stereo not drawn) [SULOCTIDIL] | Not Active
O=c1[nH]c(=O)n(C2CCCO2)cc1F (stereo not drawn) [TEGAFUR] | Not Active

biological target: Mitogen-activated protein kinase 1 (Homo sapiens, UniProt P28482); assay: DRUGMATRIX: Protein Serine/Threonine Kinase, ERK2 enzyme inhibition (substrate: Myelin Basic Protein); set-up: species or system Escherichia coli; details: Not Active = under 50% inhibition at 10 µM
Sequence (P28482 whole entry): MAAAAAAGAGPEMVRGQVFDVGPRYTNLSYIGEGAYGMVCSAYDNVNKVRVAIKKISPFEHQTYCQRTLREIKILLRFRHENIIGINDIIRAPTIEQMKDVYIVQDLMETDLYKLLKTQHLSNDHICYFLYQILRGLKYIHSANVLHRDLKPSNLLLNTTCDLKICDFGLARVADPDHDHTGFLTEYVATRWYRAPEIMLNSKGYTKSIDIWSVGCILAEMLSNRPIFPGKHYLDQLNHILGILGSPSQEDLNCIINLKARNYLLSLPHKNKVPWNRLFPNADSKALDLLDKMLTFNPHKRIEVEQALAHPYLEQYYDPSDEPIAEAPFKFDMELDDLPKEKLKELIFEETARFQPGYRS

SMILES | IC50
CC1CCC(NC(=O)N(CCCl)N=O)CC1 (stereo not drawn) [SEMUSTINE] | Not Active
O=C1C[C@@H]2OCC=C3CN4CC[C@]56c7ccccc7N1[C@H]5[C@H]2[C@H]3C[C@H]46 [STRYCHNINE] | Not Active
C[N+](C)(C)CCOC(=O)CCC(=O)OCC[N+](C)(C)C.[Cl-].[Cl-] [SUCCINYLCHOLINE CHLORIDE] | Not Active
Nc1ccc(S(=O)(=O)NC(=O)c2ccccc2)cc1 [SULFABENZAMIDE] | Not Active
CCCCCCCCNC(C)C(O)c1ccc(SC(C)C)cc1 (stereo not drawn) [SULOCTIDIL] | Not Active
O=c1[nH]c(=O)n(C2CCCO2)cc1F (stereo not drawn) [TEGAFUR] | Not Active

biological target: T3, Receptor-type tyrosine-protein phosphatase C (Homo sapiens, UniProt P08575); assay: not given; set-up: species or system Escherichia coli; details: not given
T3 sequence (P08575 whole entry): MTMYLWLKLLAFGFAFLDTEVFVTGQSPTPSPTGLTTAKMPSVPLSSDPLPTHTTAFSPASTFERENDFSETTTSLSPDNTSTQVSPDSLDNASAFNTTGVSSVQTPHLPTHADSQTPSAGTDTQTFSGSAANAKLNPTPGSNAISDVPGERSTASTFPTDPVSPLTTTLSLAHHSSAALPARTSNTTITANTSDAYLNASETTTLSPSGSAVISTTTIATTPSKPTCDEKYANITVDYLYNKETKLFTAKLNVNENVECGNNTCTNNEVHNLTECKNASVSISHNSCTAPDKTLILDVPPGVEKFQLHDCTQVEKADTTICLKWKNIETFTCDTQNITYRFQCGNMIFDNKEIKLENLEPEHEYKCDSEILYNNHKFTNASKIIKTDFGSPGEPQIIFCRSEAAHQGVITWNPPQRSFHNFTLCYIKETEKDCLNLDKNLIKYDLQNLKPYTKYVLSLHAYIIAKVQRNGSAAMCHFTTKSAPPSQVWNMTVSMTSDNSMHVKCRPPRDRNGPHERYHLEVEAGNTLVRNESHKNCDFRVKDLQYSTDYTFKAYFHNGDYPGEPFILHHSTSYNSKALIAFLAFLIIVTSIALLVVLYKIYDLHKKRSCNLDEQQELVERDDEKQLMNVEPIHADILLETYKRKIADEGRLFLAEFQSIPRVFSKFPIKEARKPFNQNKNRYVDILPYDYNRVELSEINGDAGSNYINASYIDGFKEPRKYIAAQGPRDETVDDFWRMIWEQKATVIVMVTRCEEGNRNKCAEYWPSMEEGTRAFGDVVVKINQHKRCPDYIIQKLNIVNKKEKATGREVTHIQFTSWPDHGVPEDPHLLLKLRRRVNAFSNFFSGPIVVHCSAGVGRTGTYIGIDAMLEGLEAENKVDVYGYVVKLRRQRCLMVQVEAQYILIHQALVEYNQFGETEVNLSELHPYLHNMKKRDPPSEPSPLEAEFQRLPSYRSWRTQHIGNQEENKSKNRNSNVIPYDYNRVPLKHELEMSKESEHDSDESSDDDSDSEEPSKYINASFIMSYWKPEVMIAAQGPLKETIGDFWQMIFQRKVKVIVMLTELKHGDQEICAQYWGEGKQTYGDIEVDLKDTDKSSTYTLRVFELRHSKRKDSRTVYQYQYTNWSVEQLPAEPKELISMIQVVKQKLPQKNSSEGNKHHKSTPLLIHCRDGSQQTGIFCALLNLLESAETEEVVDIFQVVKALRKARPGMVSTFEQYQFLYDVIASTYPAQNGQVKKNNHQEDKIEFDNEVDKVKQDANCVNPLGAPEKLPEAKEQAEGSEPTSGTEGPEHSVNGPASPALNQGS

SMILES | IC50
CC1CCC(NC(=O)N(CCCl)N=O)CC1 (stereo not drawn) [SEMUSTINE] | Not Active
O=C1C[C@@H]2OCC=C3CN4CC[C@]56c7ccccc7N1[C@H]5[C@H]2[C@H]3C[C@H]46 [STRYCHNINE] | Not Active
C[N+](C)(C)CCOC(=O)CCC(=O)OCC[N+](C)(C)C.[Cl-].[Cl-] [SUCCINYLCHOLINE CHLORIDE] | Not Active
Nc1ccc(S(=O)(=O)NC(=O)c2ccccc2)cc1 [SULFABENZAMIDE] | Not Active
CCCCCCCCNC(C)C(O)c1ccc(SC(C)C)cc1 (stereo not drawn) [SULOCTIDIL] | Not Active
O=c1[nH]c(=O)n(C2CCCO2)cc1F (stereo not drawn) [TEGAFUR] | Not Active

biological target: 5-hydroxytryptamine receptor 1B (Rattus norvegicus, UniProt P28564); assay: not given; format: cell membranes, Wistar, Cerebral cortex, Membrane; details: not given; further: in other assays of this panel Not Active means under 50% inhibition at 10 µM
Sequence (P28564 whole entry): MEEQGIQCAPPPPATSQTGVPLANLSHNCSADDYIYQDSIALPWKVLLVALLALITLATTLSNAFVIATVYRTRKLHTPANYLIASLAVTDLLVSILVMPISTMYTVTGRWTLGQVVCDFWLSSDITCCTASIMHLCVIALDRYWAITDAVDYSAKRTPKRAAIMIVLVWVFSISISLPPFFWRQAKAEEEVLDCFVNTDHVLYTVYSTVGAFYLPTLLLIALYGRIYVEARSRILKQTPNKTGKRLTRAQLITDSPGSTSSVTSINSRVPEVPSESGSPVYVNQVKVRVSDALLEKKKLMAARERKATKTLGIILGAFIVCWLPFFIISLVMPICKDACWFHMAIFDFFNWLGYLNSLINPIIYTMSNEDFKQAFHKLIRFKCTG

SMILES | IC50
CC1CCC(NC(=O)N(CCCl)N=O)CC1 (stereo not drawn) [SEMUSTINE] | Not Active
O=C1C[C@@H]2OCC=C3CN4CC[C@]56c7ccccc7N1[C@H]5[C@H]2[C@H]3C[C@H]46 [STRYCHNINE] | Not Active
C[N+](C)(C)CCOC(=O)CCC(=O)OCC[N+](C)(C)C.[Cl-].[Cl-] [SUCCINYLCHOLINE CHLORIDE] | Not Active
Nc1ccc(S(=O)(=O)NC(=O)c2ccccc2)cc1 [SULFABENZAMIDE] | Not Active
CCCCCCCCNC(C)C(O)c1ccc(SC(C)C)cc1 (stereo not drawn) [SULOCTIDIL] | Not Active
O=c1[nH]c(=O)n(C2CCCO2)cc1F (stereo not drawn) [TEGAFUR] | Not Active
